For 23 compounds, IC50 results are on record in patent US9650379B2 (CHONG KUN DANG PHARMACEUTICAL CORP., priority 2013, dated 2017).

The target of one test is T1, HDAC6 human recombinant (Homo sapiens, UniProt Q9UBN7).
T1 construct: purchased Calbiochem 382180
T1 sequence (Q9UBN7 1-1215): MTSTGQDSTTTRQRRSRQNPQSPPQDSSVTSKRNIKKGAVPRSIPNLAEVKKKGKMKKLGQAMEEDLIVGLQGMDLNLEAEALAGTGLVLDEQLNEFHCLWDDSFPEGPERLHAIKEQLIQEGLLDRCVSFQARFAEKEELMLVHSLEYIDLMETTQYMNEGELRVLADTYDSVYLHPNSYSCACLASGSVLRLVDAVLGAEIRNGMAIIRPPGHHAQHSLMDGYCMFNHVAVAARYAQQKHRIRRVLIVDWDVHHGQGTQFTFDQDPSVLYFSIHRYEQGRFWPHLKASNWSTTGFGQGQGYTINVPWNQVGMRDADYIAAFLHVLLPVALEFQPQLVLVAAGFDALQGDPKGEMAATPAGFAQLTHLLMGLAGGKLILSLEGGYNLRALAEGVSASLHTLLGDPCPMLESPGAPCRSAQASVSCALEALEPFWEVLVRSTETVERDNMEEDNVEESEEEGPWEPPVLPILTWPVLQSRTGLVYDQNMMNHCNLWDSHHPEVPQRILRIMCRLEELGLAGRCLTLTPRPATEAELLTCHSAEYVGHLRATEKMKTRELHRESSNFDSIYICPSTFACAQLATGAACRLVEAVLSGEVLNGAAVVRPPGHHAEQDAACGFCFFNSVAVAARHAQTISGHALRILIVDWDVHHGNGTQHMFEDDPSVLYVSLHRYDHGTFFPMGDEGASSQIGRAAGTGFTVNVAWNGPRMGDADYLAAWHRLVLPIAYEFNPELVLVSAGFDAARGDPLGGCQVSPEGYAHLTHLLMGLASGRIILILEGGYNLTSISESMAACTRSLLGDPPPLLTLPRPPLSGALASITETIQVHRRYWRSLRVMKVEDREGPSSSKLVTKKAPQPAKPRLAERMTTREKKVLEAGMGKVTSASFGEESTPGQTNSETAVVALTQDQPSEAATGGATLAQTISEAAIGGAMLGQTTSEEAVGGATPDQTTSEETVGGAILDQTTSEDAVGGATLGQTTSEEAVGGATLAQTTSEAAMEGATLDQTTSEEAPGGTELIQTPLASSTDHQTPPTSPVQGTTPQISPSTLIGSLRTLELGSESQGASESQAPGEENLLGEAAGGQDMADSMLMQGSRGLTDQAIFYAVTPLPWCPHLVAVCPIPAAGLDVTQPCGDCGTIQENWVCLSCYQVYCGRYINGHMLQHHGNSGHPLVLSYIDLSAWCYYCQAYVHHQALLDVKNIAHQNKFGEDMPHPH
Nature of the test: Inhibition of HDAC6 activity (fluorimetric assay). The format is biochemical. Conditions: test concentrations 0.1, 1, 10, 100 and 1000 nM; 37° C., 60 minutes. Summed up: (§1)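 HDAC1 tested with the kit assay mixture at 100, 1000 and 10000 nM compound; recombinant human HDAC6 at 0.1, 1, 10, 100 and 1000 nM. Reaction ran 60 min at 37° C, then developer was added for 30 min at 37° C and fluorescence quantified.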

For the next test, the target named is T2, HDAC1 (Homo sapiens, UniProt Q13547).
T2 construct: purchased Enzolifesciences BML-AK511
Nature of the test: Inhibition of HDAC1 activity (HDAC1 fluorimetric drug discovery assay kit). Conditions: test concentrations 100, 1000 and 10000 nM; 37° C., 60 minutes. Format: biochemical. Summed up:
as §1

A word on the pIC50: it is −log10 of the IC50, conventionally taken in molar units.

pIC50: −log10 of the molar value.

T2 sequence (Q13547 whole entry): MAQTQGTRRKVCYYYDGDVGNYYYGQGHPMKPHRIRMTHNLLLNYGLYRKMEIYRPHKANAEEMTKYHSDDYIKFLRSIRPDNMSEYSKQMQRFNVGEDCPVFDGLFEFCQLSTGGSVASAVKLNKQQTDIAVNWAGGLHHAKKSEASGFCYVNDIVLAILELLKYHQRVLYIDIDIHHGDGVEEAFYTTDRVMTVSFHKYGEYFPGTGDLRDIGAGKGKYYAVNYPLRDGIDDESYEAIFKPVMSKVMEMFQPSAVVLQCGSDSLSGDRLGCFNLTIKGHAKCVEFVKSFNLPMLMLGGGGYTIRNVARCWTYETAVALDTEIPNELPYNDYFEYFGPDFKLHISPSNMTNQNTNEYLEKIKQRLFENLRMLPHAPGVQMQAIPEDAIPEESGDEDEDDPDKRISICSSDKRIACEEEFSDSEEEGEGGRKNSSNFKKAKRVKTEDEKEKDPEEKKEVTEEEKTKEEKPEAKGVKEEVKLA

Consider `O=C(NO)c1ccc(Cn2ccc3cc(N4CCN(Cc5ccc(F)cc5)CC4)cnc32)cc1` [Compound 852, 4-((5-(4-(4-fluorobenzyl)piperazin-1-yl)-1H-pyrrolo[2,3-b]pyridin-1-yl)methyl)-N-hydroxybenzamide], for which the negative-log IC50 (pIC50) on HDAC6 human recombinant is 7.94; against HDAC1, 5.66.
For the compound `CC(C)CN1CCN(c2cnc3c(ccn3Cc3ccc(C(=O)NO)cc3)c2)CC1` [Compound 853, N-hydroxy-4-((5-(4-isobutylpiperazin-1-yl)-1H-pyrrolo[2,3-b]pyridin-1-yl)methyl)benzamide], the pIC50 on HDAC6 human recombinant is 7.62; on HDAC1 it was 5.45.
The matching figures for `CC(C)(F)C(=O)N1CCC(c2cnc3c(ccn3Cc3ccc(C(=O)NO)cc3)c2)CC1` [Compound 854, 4-((5-(1-(2-fluoro-2-methylpropanoyl)piperidin-4-yl)-1H-pyrrolo[2,3-b]pyridin-1-yl)methyl)-N-hydroxybenzamide]: 8.30 and 6.46.
The like results for `CC(C)(F)C(=O)N1CCN(c2cnc3c(ccn3Cc3ccc(C(=O)NO)cc3)c2)CC1` [Compound 855, 4-((5-(4-(2-fluoro-2-methylpropanoyl)piperazin-1-yl)-1H-pyrrolo[2,3-b]pyridin-1-yl)methyl)-N-hydroxybenzamide] were, in that order, 8.46 and 6.60.
With `CC(C)(F)C(=O)N1CCN(c2ccnc3c2ccn3Cc2ccc(C(=O)NO)cc2)CC1` [Compound 856, 4-((4-(4-(2-fluoro-2-methylpropanoyl)piperazin-1-yl)-1H-pyrrolo[2,3-b]pyridin-1-yl)methyl)-N-hydroxybenzamide], the results for the pIC50 on HDAC6 human recombinant and at HDAC1 were 8.64 and 7.10, respectively.
The matching figures for `C[C@@H]1CN(c2cnc3c(ccn3Cc3ccc(C(=O)NO)cc3)c2)C[C@H](C)N1Cc1cccc(F)c1` [Compound 857, 4-((5-((3S,5R)-4-(3-fluorobenzyl)-3,5-dimethylpiperazin-1-yl)-1H-pyrrolo[2,3-b]pyridin-1-yl)methyl)-N-hydroxybenzamide]: 7.61 and 5.67.
The matching figures for `CC(C)(F)C(=O)N1CCC(c2ccnc3c2ccn3Cc2ccc(C(=O)NO)cc2)CC1` [Compound 858, 4-((4-(1-(2-fluoro-2-methylpropanoyl)piperidin-4-yl)-1H-pyrrolo[2,3-b]pyridin-1-yl)methyl)-N-hydroxybenzamide]: 8.44 and 7.22.
Regarding `COc1cccc(CN2CCC(c3ccnc4c3ccn4Cc3ccc(C(=O)NO)cc3)CC2)c1` [Compound 859, N-hydroxy-4-((4-(1-(3-methoxybenzyl)piperidin-4-yl)-1H-pyrrolo[2,3-b]pyridin-1-yl)methyl)benzamide], the pIC50 was 8.22 on HDAC6 human recombinant and 6.48 on HDAC1.
For the compound `O=C(NO)c1ccc(Cn2ccc3c(C4CCN(C(=O)c5cccc(F)c5)CC4)ccnc32)cc1` [Compound 860, 4-((4-(1-(3-fluorobenzoyl)piperidin-4-yl)-1H-pyrrolo[2,3-b]pyridin-1-yl)methyl)-N-hydroxybenzamide], the pIC50 at HDAC6 human recombinant is 8.60; against HDAC1, 6.92.
Take `O=C(NO)c1ccc(Cn2ccc3cc(N4CCN(Cc5ccccc5F)CC4)cnc32)cc1` [Compound 861, 4-((5-(4-(2-fluorobenzyl)piperazin-1-yl)-1H-pyrrolo[2,3-b]pyridin-1-yl)methyl)-N-hydroxybenzamide]: the figures for the pIC50 at HDAC6 human recombinant and on HDAC1 were 7.95 and 5.73, respectively.
The like results for `CC(C)(C)CCN1CCN(c2cnc3c(ccn3Cc3ccc(C(=O)NO)cc3)c2)CC1` [Compound 862, 4-((5-(4-(3,3-dimethylbutyl)piperazin-1-yl)-1H-pyrrolo[2,3-b]pyridin-1-yl)methyl)-N-hydroxybenzamide] were, in that order, 7.92 and 5.84.
In the case of `CC(C)CN1CCC(c2cnc3c(ccn3Cc3ccc(C(=O)NO)cc3)c2)CC1` [Compound 863, N-hydroxy-4-((5-(1-isobutylpiperidin-4-yl)-1H-pyrrolo[2,3-b]pyridin-1-yl)methyl)benzamide], the pIC50 was 7.94 at HDAC6 human recombinant and 5.95 against HDAC1.
Turning to `CC(C)(C)CCN1CCC(c2cnc3c(ccn3Cc3ccc(C(=O)NO)cc3)c2)CC1` [Compound 864, 4-((5-(1-(3,3-dimethylbutyl)piperidin-4-yl)-1H-pyrrolo[2,3-b]pyridin-1-yl)methyl)-N-hydroxybenzamide], the pIC50 on HDAC6 human recombinant was 7.74; against HDAC1, 5.76.
For `C[C@@H]1CN(c2cnc3c(ccn3Cc3ccc(C(=O)NO)cc3)c2)C[C@H](C)N1CC(C)(C)O` [Compound 865, N-hydroxy-4-((5-((3S,5R)-4-(2-hydroxy-2-methylpropyl)-3,5-dimethylpiperazin-1-yl)-1H-pyrrolo[2,3-b]pyridin-1-yl)methyl)benzamide], the pIC50 was 7.92 at HDAC6 human recombinant and 6.17 on HDAC1.
For `C[C@@H]1CN(c2cnc3c(ccn3Cc3ccc(C(=O)NO)cc3)c2)C[C@H](C)N1CC(C)(C)F` [Compound 866, 4-((5-((3S,5R)-4-(2-fluoro-2-methylpropyl)-3,5-dimethylpiperazin-1-yl)-1H-pyrrolo[2,3-b]pyridin-1-yl)methyl)-N-hydroxybenzamide], the pIC50 at HDAC6 human recombinant was 7.92; on HDAC1, 5.79.
On to `CN1CCC(c2cnc3c(ccn3Cc3ccc(C(=O)NO)cc3)c2)CC1` [Compound 867, N-hydroxy-4-((5-(1-methylpiperidin-4-yl)-1H-pyrrolo[2,3-b]pyridin-1-yl)methyl)benzamide], for which the results for the pIC50 on HDAC6 human recombinant and at HDAC1 were 8.11 and 6.21, respectively.
Turning to `CC(C)(C)CN1CCC(c2ccnc3c2ccn3Cc2ccc(C(=O)NO)cc2)CC1` [Compound 868, N-hydroxy-4-((4-(1-neopentylpiperidin-4-yl)-1H-pyrrolo[2,3-b]pyridin-1-yl)methyl)benzamide], the pIC50 at HDAC6 human recombinant was 7.81; against HDAC1, 6.03.
Take `O=C(NO)c1ccc(Cn2ccc3c(C4CCN(Cc5ccccc5F)CC4)ccnc32)cc1` [Compound 869, 4-((4-(1-(2-fluorobenzyl)piperidin-4-yl)-1H-pyrrolo[2,3-b]pyridin-1-yl)methyl)-N-hydroxybenzamide]: the pIC50 on HDAC6 human recombinant was 7.58; on HDAC1, 6.46.
The matching figures for `O=C(NO)c1ccc(Cn2ccc3c(C4CCN(Cc5cccc(F)c5)CC4)ccnc32)cc1` [Compound 870, 4-((4-(1-(3-fluorobenzyl)piperidin-4-yl)-1H-pyrrolo[2,3-b]pyridin-1-yl)methyl)-N-hydroxybenzamide]: 7.69 and 6.48.
The like results for `O=C(NO)c1ccc(Cn2ccc3cc(C4CCN(Cc5cccc(C(F)(F)F)c5)CC4)cnc32)cc1` [Compound 871, N-hydroxy-4-((5-(1-(3-(trifluoromethyl)benzyl)piperidin-4-yl)-1H-pyrrolo[2,3-b]pyridin-1-yl)methyl)benzamide] were, in that order, 7.03 and 5.49.
The matching figures for `O=C(NO)c1ccc(Cn2ccc3cc(C4CCN(Cc5ccc(C(F)(F)F)cc5)CC4)cnc32)cc1` [Compound 872, N-hydroxy-4-((5-(1-(4-(trifluoromethyl)benzyl)piperidin-4-yl)-1H-pyrrolo[2,3-b]pyridin-1-yl)methyl)benzamide]: 6.78 and 5.20.
As for `O=C(NO)c1ccc(Cn2ccc3cc(C4CCN(Cc5ccc(-n6ccnc6)cc5)CC4)cnc32)cc1` [Compound 873, 4-((5-(1-(4-(1H-imidazol-1-yl)benzyl)piperidin-4-yl)-1H-pyrrolo[2,3-b]pyridin-1-yl)methyl)-N-hydroxybenzamide], the figures for the pIC50 on HDAC6 human recombinant and on HDAC1 were 7.78 and 6.12, respectively.
The matching figures for `O=C(NO)c1ccc(Cn2ccc3cc(C4CCN(Cc5ccc(-n6cnnc6)cc5)CC4)cnc32)cc1` [Compound 874, 4-((5-(1-(4-(4H-1,2,4-triazol-4-yl)benzyl)piperidin-4-yl)-1H-pyrrolo[2,3-b]pyridin-1-yl)methyl)-N-hydroxybenzamide]: 7.73 and 6.16.
